Data set [1] in a line: Caloric availability, two week feeding study. It counts as in vivo. The following applies: young male Sprague-Dawley rats, modified AIN-76 diet at 15% added fat level. The protocol: Caloric availability of the compounds are evaluated by the two week feeding study of young male Sprague-Dawley rats weighing approximately 50 to 60 gm. This caloric availability study as described described by Finley, et al. ((1994) J. Agric. Food Chem. 42:489-494) was modified to use smaller amounts of test materials. The feeding study was conducted using a modified AIN-76 diet at 15% added fat level and five test animals are used for each compound. Weight gains are monitored at days 0,3,7,10 and 14.

The target of data set [2] is T1, porcine lipase (Sus scrofa, UniProt P00591).
T1 sequence (P00591 1-450): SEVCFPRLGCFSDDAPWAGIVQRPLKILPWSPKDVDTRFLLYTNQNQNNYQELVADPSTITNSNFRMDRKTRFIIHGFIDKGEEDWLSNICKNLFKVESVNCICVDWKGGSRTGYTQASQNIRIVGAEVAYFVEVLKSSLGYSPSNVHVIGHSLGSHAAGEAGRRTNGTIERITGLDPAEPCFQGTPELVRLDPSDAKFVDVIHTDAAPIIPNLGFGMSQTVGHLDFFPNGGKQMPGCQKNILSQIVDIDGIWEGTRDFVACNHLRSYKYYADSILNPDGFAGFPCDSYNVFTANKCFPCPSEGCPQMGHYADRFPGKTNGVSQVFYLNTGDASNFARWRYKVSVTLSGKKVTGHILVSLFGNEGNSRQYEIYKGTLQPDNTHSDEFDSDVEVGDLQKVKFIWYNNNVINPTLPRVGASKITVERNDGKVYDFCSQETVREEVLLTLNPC
Nature of the data set: Hydrolysis by pancreatic lipase, aqueous emulsion system. It counts as in vitro ADME. Conditions: aqueous emulsion (HMPC, sodium cholate), 30 ° C. As for the experimental part:
(§1) The digestibility of the acylated triglycerides of the present invention were done to compare with triolein. The in-vitro assays were done using two emulsion systems as in the following procedure.
A mixture of 300 mg of the fat/fat substitute, 4 ml of Bis-Tris propane buffer (10 mM, pH 7.8), 5 ml of hydroxyproylmethylcellulose (HMPC, […]), 0.5 ml of sodium cholate (0.1M) were sonicated to disperse the fats and incubated at 30 ° C. Porcine lipase (0.5 ml, 20 mg/ml) was added. The analysis of the reaction was carried out as in the above organic solution assay. Acetylated castor (hydrogenated) was 70% hydrolyzed while triolein under similar conditions was 93% hydrolyzed.

Data set [3] addresses T1, porcine lipase. Description: Hydrolysis by pancreatic lipase, organic solvent system. It is filed as in vitro ADME. The following applies: organic solvent (t-amyl alcohol), 30° C., 20 h. The protocol: as §1
Each digest was carried out with 300 mg of the fat/fat substitute, 9 ml of the t-amyl alcohol, 0.5 ml of Bis-Tris propane buffer (10 mM, pH 7.8) and 0.5 ml of porcine lipase (20 mg/ml). The reaction was incubated at 30° C. and the reaction stopped by adding 1 ml aliquots to 3 ml of isopropanol/heptane/sulfuric acid (40/10/1). The product was extracted with heptane and analyzed by GC and GC-MS at 360° C. The hydrolysis of the acetylated castor (hydrogenated) was 48% complete in 20 h and triolein was hydrolyzed to 69%.

SMILES strings stand for the structures.

`CCCCCCCCCCCCCCCCCC(=O)OC(CCCCCC)CCCCCCCCCCCCC(=O)OCC(COC(=O)CCCCCCCCCCCCC(CCCCCC)OC(=O)CCCCCCCCCCCCCCCCC)OC(=O)CCCCCCCCCCCCCCCCC` (stereo not shown) [distearoyl lesquerella oil-hydrogenated, 1,3-bis(14-octadecanoyloxy)eicosanoic acid-2-octadecanoic acid triglyceride] came in with a caloric availability in data set [1] of 5.6 kcal/g.

As for `CCCCCCC(CCCCCCCCCCC(=O)OCC(COC(=O)CCCCCCCCCCC(CCCCCC)OC(C)=O)OC(=O)CCCCCCCCCCC(CCCCCC)OC(C)=O)OC(C)=O` (stereo not shown) [acetylated castor (hydrogenated), 12-acetyloxyoctadecanoic acid triglyceride], the hydrolyzed on porcine lipase [2] came out at 70%. For the same compound, the hydrolysis at porcine lipase [3] was 48%. Also, in data set [1], the caloric availability worked out at 6 kcal/g.
